Source: ChEMBL document CHEMBL4627415, “Design and Structural Optimization of Dual FXR/PPARδ Activators” (J Med Chem, 2020)
The source made the active and inactive calls. No cut-off for these calls is given here.

Experiments:
[1] = molecular target: T1, Peroxisome proliferator-activated receptor alpha (Homo sapiens) (UniProt Q07869); experiment: Activation of human PPAR-alpha LBD expressed in HEK293T cells assessed as induction of receptor activation at 10 uM incubated for 12 to 14 hrs by luciferase reporter gene assay; type: cell-based; conditions: HEK-293T
T1 sequence (whole entry): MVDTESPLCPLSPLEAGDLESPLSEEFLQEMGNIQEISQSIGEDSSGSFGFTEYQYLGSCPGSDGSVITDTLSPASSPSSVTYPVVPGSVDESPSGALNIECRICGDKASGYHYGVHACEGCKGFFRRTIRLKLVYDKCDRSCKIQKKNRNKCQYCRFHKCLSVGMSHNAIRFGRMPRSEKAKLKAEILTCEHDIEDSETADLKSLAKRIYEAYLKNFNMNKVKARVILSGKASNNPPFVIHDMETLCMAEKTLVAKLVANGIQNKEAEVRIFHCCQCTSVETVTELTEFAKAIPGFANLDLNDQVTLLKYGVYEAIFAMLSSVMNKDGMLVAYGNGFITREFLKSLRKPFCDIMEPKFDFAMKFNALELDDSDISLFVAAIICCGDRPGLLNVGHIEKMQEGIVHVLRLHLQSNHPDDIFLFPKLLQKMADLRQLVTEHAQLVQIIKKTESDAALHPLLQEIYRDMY

[2] = molecular target: T2, Peroxisome proliferator-activated receptor delta (Homo sapiens) (UniProt Q03181); experiment: Activation of human PPAR-delta LBD expressed in HEK293T cells assessed as induction of receptor activation at 1 to 3 uM incubated for 12 to 14 hrs by luciferase reporter gene assay; type: cell-based; conditions: HEK-293T
T2 sequence (whole entry): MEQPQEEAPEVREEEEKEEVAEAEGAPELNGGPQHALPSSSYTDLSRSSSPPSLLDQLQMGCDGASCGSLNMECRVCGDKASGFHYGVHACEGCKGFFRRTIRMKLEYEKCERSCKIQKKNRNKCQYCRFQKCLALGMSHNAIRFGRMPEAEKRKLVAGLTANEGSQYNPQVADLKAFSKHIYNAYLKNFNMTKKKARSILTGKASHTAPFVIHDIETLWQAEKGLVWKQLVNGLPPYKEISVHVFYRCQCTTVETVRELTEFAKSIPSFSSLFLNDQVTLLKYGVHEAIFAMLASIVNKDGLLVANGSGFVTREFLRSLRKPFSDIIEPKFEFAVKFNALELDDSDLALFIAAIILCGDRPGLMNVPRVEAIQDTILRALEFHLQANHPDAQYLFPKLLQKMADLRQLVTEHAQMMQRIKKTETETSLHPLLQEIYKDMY

- Activity [1]: inactive
- Activity [2]: Active
SMILES: CC(C)c1onc(-c2c(Cl)cccc2Cl)c1COc1ccc(CNc2ccc(CC(=O)O)cc2)c(Cl)c1
